According to EP0341735A1, “N-acetyl-3-fluoroneuraminic acid as antiviral drug” (priority 1988, dated 1989):

Experiments:
Female ICR mice = test: Acute toxicity test by intravenous injection; type: in vivo; conditions: for Number of deaths: Intravenous injection, 10 mice per level, observation period 14 days
Description: The acute toxicity test of Compound 1 was conducted by an intravenous injection in female mice.
Animals used: Female ICR mice (6 week old) Medicine concentration: 13 to 15 W/V % in distilled water Number of mice for each level: 10 Observation period: 14 days.

[1] = system: sialidase produced by Arthrobacter ureaffacients; test: Sialidase inhibition, 4-MU-NeuAc fluorescence assay; type: biochemical, Arthrobacter ureafaciens; conditions: for Inhibition rate / NeuAc released: substrate 4-MU-NeuAc, pH 4.2, 37 °C, 15 min
Description: (§1) 100 µ ℓ of a 0.5 mM solution of 4-methylumbelliferyl-N-acetylneuraminic acid (4-MU-NeuAc) (a product of Nakarai Kagaku Co., Ltd) of the following formula: [drawing 15]
(§2) 100 µ ℓ of a 200 mM sodium acetate buffer (pH 4.2) and 100 µ ℓ of N-acetyl-3-fluoroneuraminic acid (compound 1) 4 to 400 µM were added to an enzyme solution ([…]) (10 mU/ml) of sialidase (a product of Nakarai Kagaku Co., Ltd.) product from Arthrobacter ureafaciens in a test tube, and the reaction was conducted in a water bath at 37 °C for 15 min. Then, 3.6 ml of a 200 mM glycine/NaOH buffer (pH 10.4) was added to the reaction mixture in the test tube to terminate the reaction. the concentration of 4-methylumbelliferone formed in the reaction solution was determined from its fluorescence intensity at an excitation wave length of 360 nm and an emission wave length of 440 nm with a fluorescence spectrophotometer (a product of Hitachi, Ltd.). The amount of free sialic acid was determined from this value.
(§3) The sialidase inhibition rate was determined according to the following formula: [formula]

[2] = system: sialidase produced by Streptococcus sp.; test: as above; type: biochemical; conditions: same procedure as Example 1
Description: as §1, §2, §3
(§4) The same procedure as that of Example 1 was repeated except that sialidases produced by Vibrio colerae and Streptococcus sp. were used, and then the inhibition rate of Compound 1 was determined.

[3] = molecular target: sialidase produced by Vibrio colerae (Vibrio cholerae serotype O1, UniProt P0C6E9); test: as above; type: biochemical; conditions: same procedure as Example 1
Sequence of sialidase produced by Vibrio colerae (P0C6E9 25-781): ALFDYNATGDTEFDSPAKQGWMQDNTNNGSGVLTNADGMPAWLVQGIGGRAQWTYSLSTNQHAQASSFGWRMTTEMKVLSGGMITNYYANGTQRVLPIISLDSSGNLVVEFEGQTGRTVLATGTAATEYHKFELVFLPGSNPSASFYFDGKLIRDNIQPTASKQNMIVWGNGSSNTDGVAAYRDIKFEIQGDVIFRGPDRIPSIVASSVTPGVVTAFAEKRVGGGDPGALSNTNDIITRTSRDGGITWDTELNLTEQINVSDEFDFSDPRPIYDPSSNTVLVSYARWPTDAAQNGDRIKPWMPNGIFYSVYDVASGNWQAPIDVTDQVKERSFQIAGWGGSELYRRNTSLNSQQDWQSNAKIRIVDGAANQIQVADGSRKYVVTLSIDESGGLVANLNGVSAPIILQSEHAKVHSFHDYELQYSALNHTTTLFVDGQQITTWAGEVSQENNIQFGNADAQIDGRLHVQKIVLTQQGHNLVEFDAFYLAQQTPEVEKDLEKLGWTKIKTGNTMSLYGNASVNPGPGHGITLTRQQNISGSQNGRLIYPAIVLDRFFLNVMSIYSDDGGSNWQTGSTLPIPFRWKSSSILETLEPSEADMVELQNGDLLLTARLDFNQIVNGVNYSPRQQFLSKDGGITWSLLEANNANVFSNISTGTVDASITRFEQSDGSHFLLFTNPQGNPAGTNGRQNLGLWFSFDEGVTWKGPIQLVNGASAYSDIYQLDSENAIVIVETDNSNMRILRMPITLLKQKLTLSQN
Description: as §1, §2, §3, §4

Work on `CC(=O)N[C@H]1[C@H]([C@H](O)[C@H](O)CO)OC(O)(C(=O)O)C(F)[C@@H]1O` (stereo partly drawn) [Compound 1, N-acetyl-3-fluoroneuraminic acid] yielded a Number of deaths (Female ICR mice; dose 200 mg) of 0, a Number of deaths (Female ICR mice; dose 400 mg) of 0 and a Number of deaths (Female ICR mice; dose 600 mg) of 0. For the same compound, the “toxicity (in words)” value (Female ICR mice; conclusion from Table 4) was “quite low”, the Inhibition rate ([1]; Compound 1 at 0.001 mM) was 14.3% and the NeuAc released ([1]; Compound 1 at 0.001 mM) was 23.0 n mol. For the same compound, the Inhibition rate ([1]; Compound 1 at 0.01 mM) was 48.9%, the NeuAc released ([1]; Compound 1 at 0.01 mM) was 14.0 n mol and the Inhibition rate ([1]; Compound 1 at 0.1 mM) was 82.0%. For the same compound, the NeuAc released ([1]; Compound 1 at 0.1 mM) was 4.9 n mol, the “inhibition pattern (Dixon plot)” value ([1]; Fig. 1, two different substrate concentrations) was “competitive with the substrate” and the “activity of sialidase (inhibition, in words)” value ([1]; conclusion from Table 1) was “remarkably inhibits”. It also gave an Inhibition rate ([2]; Compound 1 at 0.001 mM) of 7.4%, a NeuAc released ([2]; Compound 1 at 0.001 mM) of 10.5 n mol and an Inhibition rate ([2]; Compound 1 at 0.01 mM) of 24.6%. It also gave a NeuAc released ([2]; Compound 1 at 0.01 mM) of 8.5 n mol, an Inhibition rate ([2]; Compound 1 at 0.1 mM) of 75.4% and a NeuAc released ([2]; Compound 1 at 0.1 mM) of 2.8 n mol. The NeuAc released ([3]; Compound 1 at 0.001 mM) was 5.9 n mol, the inhibition at 1 µM ([3]; Compound 1 at 0.001 mM, read-out: Inhibition rate) was -0.2% and the NeuAc released ([3]; Compound 1 at 0.01 mM) was 5.3 n mol. The inhibition at 10 µM ([3]; Compound 1 at 0.01 mM, read-out: Inhibition rate) was 8.4%, the NeuAc released ([3]; Compound 1 at 0.1 mM) was 2.8 n mol and the inhibition at 100 µM ([3]; Compound 1 at 0.1 mM, read-out: Inhibition rate) was 52.7%.
